Experiment [1] has as its target T1, rat NPT2b (Rattus norvegicus, UniProt Q9JJ09).
T1 construct: Full-Length cDNA Cloning and Generation of Cell Lines Over-Expressing Human, Mouse, and Rat NPT2b; host or cells: CHO-K1 / T-REx CHO, pcDNA5/TO, tetracycline-induced
T1 sequence (Q9JJ09 1-695): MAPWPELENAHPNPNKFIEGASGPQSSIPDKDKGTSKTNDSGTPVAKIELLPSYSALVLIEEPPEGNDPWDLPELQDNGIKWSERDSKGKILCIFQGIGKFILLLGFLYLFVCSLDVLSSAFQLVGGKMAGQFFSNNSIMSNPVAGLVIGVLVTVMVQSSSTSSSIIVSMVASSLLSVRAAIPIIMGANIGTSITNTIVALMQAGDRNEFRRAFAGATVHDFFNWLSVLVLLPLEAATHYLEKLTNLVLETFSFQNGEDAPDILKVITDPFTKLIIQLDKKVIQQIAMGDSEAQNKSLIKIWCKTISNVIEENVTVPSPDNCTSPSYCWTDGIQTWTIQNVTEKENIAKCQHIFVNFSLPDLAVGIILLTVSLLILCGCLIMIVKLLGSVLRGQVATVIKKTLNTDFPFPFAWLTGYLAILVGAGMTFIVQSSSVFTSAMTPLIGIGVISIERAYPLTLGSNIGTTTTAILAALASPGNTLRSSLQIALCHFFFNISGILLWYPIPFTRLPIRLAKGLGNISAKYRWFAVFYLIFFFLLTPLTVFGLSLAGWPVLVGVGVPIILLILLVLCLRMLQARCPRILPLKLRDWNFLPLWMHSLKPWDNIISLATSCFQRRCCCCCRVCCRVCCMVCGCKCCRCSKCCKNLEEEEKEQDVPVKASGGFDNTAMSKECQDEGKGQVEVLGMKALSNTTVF
The experiment is described as follows: 33P-phosphate uptake in CHO cells expressing rat NPT2b. The class given is cell-based. Conditions: geometric mean; 2.5 µM phosphate, 60 min, room temperature. On the procedure: (§1) T‐Rex™ Chinese Hamster Ovary cells (CHO; Thermo Fisher Scientific) stably expressing human, mouse, or rat NPT2b under a tetracycline‐inducible promoter were generated using standard cDNA transfection and clone selection procedures (see Supporting Information). Cells were plated in 96‐well CytoStar‐T® scintillating microplates and were incubated overnight in growth media plus 100 ng/ml of tetracycline to induce expression of NPT2b. The next day, cells were washed 3 times with 200 µl assay buffer (137 mM NaCl, 5.4 mM KCl, 2.8 mM CaCl2, 1.2 mM MgSO4, and 14 mM Tris‐HCl buffer, pH 7.5). LY3358966 serially diluted 1‐to‐3 in DMSO was added to cells with assay buffer. An equal volume of H3 ^33PO4 (PerkinElmer) in assay buffer supplemented with 5 µM potassium phosphate was then added to initiate radiolabeled phosphate (^33P‐phosphate) uptake. The final phosphate concentration was 2.5 µM and the final DMSO concentration was 1%. Following a 60‐min incubation at room temperature, an equal volume of assay buffer containing 400 µM phloretin was added to stop ^33P‐phosphate uptake. The plate was immediately read on a Wallac MicroBeta Trilux liquid scintillation counter. Percent inhibition at all concentrations tested was calculated, and IC50 values were then determined using a 4‐parameter logistic curve fitting equation.
(§2) The vendors for target cDNA are listed in supplemental Table 1. […]

Experiment [2] deals with T2, mouse NPT2b (Mus musculus, UniProt Q9DBP0).
T2 construct: Full-Length cDNA Cloning and Generation of Cell Lines Over-Expressing Human, Mouse, and Rat NPT2b; host or cells: CHO-K1 / T-REx CHO, pcDNA5/TO, tetracycline-induced
T2 sequence (Q9DBP0 1-697): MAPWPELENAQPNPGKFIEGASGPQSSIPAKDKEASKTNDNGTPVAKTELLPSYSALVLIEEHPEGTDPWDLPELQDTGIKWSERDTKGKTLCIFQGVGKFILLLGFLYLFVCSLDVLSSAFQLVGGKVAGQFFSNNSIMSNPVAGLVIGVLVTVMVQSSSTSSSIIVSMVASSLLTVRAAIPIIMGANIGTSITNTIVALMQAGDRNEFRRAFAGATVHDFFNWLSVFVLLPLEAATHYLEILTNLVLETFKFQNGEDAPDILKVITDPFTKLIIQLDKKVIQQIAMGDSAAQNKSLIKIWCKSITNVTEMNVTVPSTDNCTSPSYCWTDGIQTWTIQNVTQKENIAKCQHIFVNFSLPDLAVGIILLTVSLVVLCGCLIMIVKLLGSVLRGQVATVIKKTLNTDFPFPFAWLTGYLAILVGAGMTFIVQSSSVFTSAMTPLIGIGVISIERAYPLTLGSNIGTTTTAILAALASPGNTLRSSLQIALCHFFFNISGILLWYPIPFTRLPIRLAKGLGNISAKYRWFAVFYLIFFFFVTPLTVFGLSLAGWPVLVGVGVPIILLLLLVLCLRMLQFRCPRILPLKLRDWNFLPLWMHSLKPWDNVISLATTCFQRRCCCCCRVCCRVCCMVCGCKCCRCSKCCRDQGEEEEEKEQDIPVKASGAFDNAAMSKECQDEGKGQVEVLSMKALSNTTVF
Description: 33P-phosphate uptake in CHO cells expressing mouse NPT2b. The format is cell-based. Conditions: geometric mean; 2.5 µM phosphate, 60 min, room temperature. As for the experimental part:
as §1, §2

What is called IC50 is the concentration at which inhibition is half-maximal. Lower therefore signals higher potency.

As to `CC1(C)CN(C(=O)NCCCCO)CCN1Cc1cccc(C(=O)Nc2sc3c(c2C(=O)Nc2cc(F)c(CCc4ccc(C(=O)O)cc4)c(F)c2)CCCC3)c1` [LY3358966, 4‐[2‐[2,6‐difluoro‐4‐[[2‐[[3‐[[4‐(4‐hydroxybutylcarbamoyl)‐2,2‐dimethyl‐piperazin‐1‐yl]methyl]benzoyl]amino]‐4,5,6,7‐tetrahydrobenzothiophene‐3‐carbonyl]amino]phenyl]ethyl]benzoic acid], the IC50 in experiment [1] turned out to be 26.8 nM; in experiment [2], 43.9 nM.

The values above are taken from article PMC8863579, “Effects of pharmacological inhibition of the sodium‐dependent phosphate cotransporter 2b (NPT2b) on intestinal phosphate absorption in mouse and rat models” (Pharmacology Research & Perspectives, 2022).
